Measured values from patent publication US10966970B2, “Fused tricyclic compounds and uses thereof in medicine” (SUNSHINE LAKE PHARMA CO., LTD., priority 2017, dated 2021).

How the values were obtained:
HBV DNA replication = assay: Inhibition of HBV virus replication (HBV DNA in supernatant, qPCR); type: cell-based; details: Hepatitis B virus, 240 h; HepG2.2.15 cells, 10 days treatment, supernatant HBV DNA by qPCR
Protocol: (§1) The chromosomes of HepG2.2.15 cells (SELLS, PNAS, 1987 and SELLS, JV, 1988) integrate the complete HBV genome and stably express viral RNA and viral proteins. HepG2.2.15 cells are able to secrete mature HBV particles and HBsAg into the culture medium. Viral particle DNA and HBsAg secreted by HepG 2.2.15 cells can be quantified by qPCR and ELISA methods, and the effects of the compound on virus replication and HBsAg secretion are thus examined.
(§2) HepG 2.2.15 Cells (8,000 per well) were seeded into 96-well cell culture plates in duplicate and cultured for 3 days until the cells grew to fill in pores. Cells were treated with 4-fold serial diluted compound solution for 10 days, and the compound solution was exchanged once every other day, the final concentration of DMSO in all wells was 0.5% and DMSO was used as a drug-free control. On the eleventh day, the supernatant was collected for quantitative detection of HBV DNA.
qPCR method was used for detection of viral genomic DNA, HBV primers were as follows: HBV-For-202, […]; HBV-Rev-315, […].
Using the SY BR Premix Ex Taq II—Takara DRR081S kit, 1 ≈L of the cell culture supernatant was used as a template, a plasmid containing the HBV genome was used for plotting a standard curve, and virus copy number was calculated using the standard curve. Concentration-virus copy number was treated with Graphpad Prism 5 software and the IC50 of inhibition of virus replication by compounds was calculated by a four-parameter nonlinear regression model.

HBsAg secretion = assay: Inhibition of HBsAg secretion (ELISA); type: cell-based, HBV; details: Hepatitis B virus, HepG2.2.15, 240 h, read-out: HbsAg IC50 (nM)
Protocol: as §1
as §2, with “HBsAg.” for “HBV DNA.”
The level of HBsAg secreted by the cells after treatment with the compound was detected by ELISA. The method used a hepatitis B surface antigen diagnostic kit (Shanghai K ehua Biotechnology Co., Ltd. 510910113). 25 ≈L of the supernatant to be examined (diluted to 75 ≈L in PBS) was added to each well of the ELISA plate, and a kit-positive control and a negative control were set. The ELISA plates were blocked with mounting paper and incubated at 37 eC for 60 minutes. The ELISA plate was took out, and the mounting paper was removed, then 50 ≈L of enzyme conjugate was added into each well. After shaking for 10 seconds, the ELISA plates were blocked with mounting paper and incubated at 37 eC for 30 minutes. The ELISA plate was took out, and the mounting paper was removed, and the ELISA plate was repeated washing five times: liquid in the wells was discard each time; the wells was filled with washing solution, then stood for 60 seconds and spined dry; and liquid residue on blotting paper was patted dry. After the washing was completed, to all wells was immediately added a mixture of freshly prepared developer A and developer B: 100 ≈L per well. After shaking for 10 seconds on oscillator, the ELISA plates were blocked with mounting paper and incubated at 37 eC for 30 minutes. To all wells were added 50 ≈L of stop solution. Data were read at a wavelength of 450 nm on an Envision plate reader. Concentration-HBsAg OD450 value was treated with Graphpad Prism 5 software and the IC50 of inhibition of HBsAg secretion by compounds was calculated by a four-parameter nonlinear regression model.

| SMILES | IC50 (HBV DNA replication) [nM] | IC50 (HBsAg secretion) [nM] |
| --- | --- | --- |
| COCCCOc1cc2c(cc1C(=O)OC)-c1cc(=O)c(C(=O)O)cn1C(C(C)C)C2 (centres unmarked) [Example 1, 6-isopropyl-10-(methoxycarbonyl)-9-(3-methoxypropoxy)-2-oxo-6,7-dihydro-2H-pyrido[2,1-a]isoquinoline-3-carboxylic Acid] | 6.3 | 2.25 |
| CNC(=O)c1cc2c(cc1OCCCOC)CC(C(C)C)n1cc(C(=O)O)c(=O)cc1-2 (centres unmarked) [Example 5, 6-isopropyl-9-(3-methoxypropoxy)-10-(methylcarbamoyl)-2-oxo-6,7-dihydro-2H-pyrido[2,1-a]isoquinoline-3-carboxylic Acid] | 10.6 | 9.88 |
| COCCCOc1cc2c(cc1C(C)=O)-c1cc(=O)c(C(=O)O)cn1C(C(C)C)C2 (centres unmarked) [Example 6, 10-acetyl-6-isopropyl-9-(3-methoxypropoxy)-2-oxo-6,7-dihydro-2H-pyrido[2,1-a]isoquinoline-3-carboxylic Acid] | 3.02 | 3.63 |
| CCOCc1cc2c(cc1OCCCOC)CC(C(C)C)n1cc(C(=O)O)c(=O)cc1-2 (centres unmarked) [Example 7, 10-(ethoxymethyl)-6-isopropyl-9-(3-methoxypropoxy)-2-oxo-6,7-dihydro-2H-pyrido[2,1-a]isoquinoline-3-carboxylic Acid] | 8.16 | 13.5 |
| COCCCOc1cc2c(cc1-c1csc(N)n1)-c1cc(=O)c(C(=O)O)cn1C(C(C)C)C2 (centres unmarked) [Example 8, 10-(2-aminothiazol-4-yl)-6-isopropyl-9-(3-methoxypropoxy)-2-oxo-6,7-dihydro-2H-pyrido[2,1-a]isoquinoline-3-carboxylic Acid] | 4.46 | 6.28 |
| COCCCOc1cc2c(cc1-c1nccs1)-c1cc(=O)c(C(=O)O)cn1C(C(C)C)C2 (centres unmarked) [Example 9, 6-isopropyl-9-(3-methoxypropoxy)-2-oxo-10-(thiazol-2-yl)-6,7-dihydro-2H-pyrido[2,1-a]isoquinoline-3-carboxylic Acid] | 0.18 | 0.25 |
| COCCCOc1cc2c(cc1-c1ncco1)-c1cc(=O)c(C(=O)O)cn1C(C(C)C)C2 (centres unmarked) [Example 10, 6-isopropyl-9-(3-methoxypropoxy)-10-(oxazol-2-yl)-2-oxo-6,7-dihydro-2H-pyrido[2,1-a]isoquinoline-3-carboxylic Acid] | 7.29 | 10.5 |
| COCCCOc1cc2c(cc1-c1ccco1)-c1cc(=O)c(C(=O)O)cn1C(C(C)C)C2 (centres unmarked) [Example 11, 10-(furan-2-yl)-6-isopropyl-9-(3-methoxypropoxy)-2-oxo-6,7-dihydro-2H-pyrido[2,1-a]isoquinoline-3-carboxylic Acid] | 1.9 | 1.6 |
| COCCCOc1cc2c(cc1-c1cscn1)-c1cc(=O)c(C(=O)O)cn1C(C(C)C)C2 (centres unmarked) [Example 13, 6-isopropyl-9-(3-methoxypropoxy)-2-oxo-10-(thiazol-4-yl)-6,7-dihydro-2H-pyrido[2,1-a]isoquinoline-3-carboxylic Acid] | 0.64 | 1.48 |
| COCCCOc1cc2c(cc1-c1csc(C)n1)-c1cc(=O)c(C(=O)O)cn1C(C(C)C)C2 (centres unmarked) [Example 14, 6-isopropyl-9-(3-methoxypropoxy)-10-(2-methylthiazol-4-yl)-2-oxo-6,7-dihydro-2H-pyrido[2,1-a]isoquinoline-3-carboxylic Acid] | 3.36 | 7.2 |
| COCCCOc1cc2c(cc1-c1cccs1)-c1cc(=O)c(C(=O)O)cn1C(C(C)C)C2 (centres unmarked) [Example 15, 6-isopropyl-9-(3-methoxypropoxy)-2-oxo-10-(thiophen-2-yl)-6,7-dihydro-2H-pyrido[2,1-a]isoquinoline-3-carboxylic Acid] | 0.39 | 0.77 |
| COc1cc2c(cc1-c1ccco1)CC(C(C)C)n1cc(C(=O)O)c(=O)cc1-2 (centres unmarked) [Example 16, 9-(furan-2-yl)-6-isopropyl-10-methoxy-2-oxo-6,7-dihydro-2H-pyrido[2,1-a]isoquinoline-3-carboxylic Acid] | 1.99 | 3.2 |
| COc1cc2c(cc1-c1cccs1)CC(C(C)C)n1cc(C(=O)O)c(=O)cc1-2 (centres unmarked) [Example 17, 6-isopropyl-10-methoxy-2-oxo-9-(thiophen-2-yl)-6,7-dihydro-2H-pyrido[2,1-a]isoquinoline-3-carboxylic Acid] | 3.6 | 2.14 |
| CC(C)C1Cc2cc(OCc3ccccc3)c(-c3nccs3)cc2-c2cc(=O)c(C(=O)O)cn21 (centres unmarked) [Example 18, 9-(benzyloxy)-6-isopropyl-2-oxo-10-(thiazol-2-yl)-6,7-dihydro-2H-pyrido[2,1-a]isoquinoline-3-carboxylic Acid] | 8.09 | 5.53 |
| CCCCCOc1cc2c(cc1-c1nccs1)-c1cc(=O)c(C(=O)O)cn1C(C(C)C)C2 (centres unmarked) [Example 20, 6-isopropyl-2-oxo-9-(pentyloxy)-10-(thiazol-2-yl)-6,7-dihydro-2H-pyrido[2,1-a]isoquinoline-3-carboxylic Acid] | 8.79 | 8.12 |
| CC(C)C1Cc2cc(OCC3CCOCC3)c(-c3nccs3)cc2-c2cc(=O)c(C(=O)O)cn21 (centres unmarked) [Example 21, 6-isopropyl-2-oxo-9-((tetrahydro-2H-pyran-4-yl)methoxy)-10-(thiazol-2-yl)-6,7-dihydro-2H-pyrido[2,1-a]isoquinoline-3-carboxylic Acid] | 0.3 | 0.35 |
| CC(C)C1Cc2cc(OCCC3CC3)c(-c3nccs3)cc2-c2cc(=O)c(C(=O)O)cn21 (centres unmarked) [Example 22, 9-(2-cyclopropylethoxy)-6-isopropyl-2-oxo-10-(thiazol-2-yl)-6,7-dihydro-2H-pyrido[2,1-a]isoquinoline-3-carboxylic Acid] | 0.84 | 0.65 |
| COCCCOc1cc2c(cc1-c1ncc(Br)s1)-c1cc(=O)c(C(=O)O)cn1C(C(C)C)C2 (centres unmarked) [Example 24, 10-(5-bromothiazol-2-yl)-6-isopropyl-9-(3-methoxypropoxy)-2-oxo-6,7-dihydro-2H-pyrido[2,1-a]isoquinoline-3-carboxylic Acid] | 8.63 | 9.99 |
| CC(=O)c1cc2c(cc1N1CCCC1)CC(C(C)C)n1cc(C(=O)O)c(=O)cc1-2 (centres unmarked) [Example 30, 10-acetyl-6-isopropyl-2-oxo-9-(pyrrolidin-1-yl)-6,7-dihydro-2H-pyrido[2,1-a]isoquinoline-3-carboxylic Acid] | 7.68 | 7.83 |
| CC(=O)c1cc2c(cc1-c1ccco1)CC(C(C)C)n1cc(C(=O)O)c(=O)cc1-2 (centres unmarked) [Example 31, 10-acetyl-9-(furan-2-yl)-6-isopropyl-2-oxo-6,7-dihydro-2H-pyrido[2,1-a]isoquinoline-3-carboxylic Acid] | 6.26 | 8.2 |
| COC(=O)c1cc2c(cc1-c1ccco1)CC(C(C)C)n1cc(C(=O)O)c(=O)cc1-2 (centres unmarked) [Example 32, 9-(furan-2-yl)-6-isopropyl-10-(methoxycarbonyl)-2-oxo-6,7-dihydro-2H-pyrido[2,1-a]isoquinoline-3-carboxylic Acid] | 7.57 | 9.62 |
| COC(=O)c1cc2c(cc1N1CC[C@H](OC(C)=O)C1)CC(C(C)C)n1cc(C(=O)O)c(=O)cc1-2 (stereo partly drawn) [Example 47, 9-((S)-3-acetoxypyrrolidin-1-yl)-6-isopropyl-10-(methoxycarbonyl)-2-oxo-6,7-dihydro-2H-pyrido[2,1-a]isoquinoline-3-carboxylic Acid] | 6.35 | – |
| COCCCOc1cc2c(cc1C(=O)CCC(F)(F)F)-c1cc(=O)c(C(=O)O)cn1C(C(C)C)C2 (centres unmarked) [Example 53, 6-isopropyl-9-(3-methoxypropoxy)-2-oxo-10-(4,4,4-trifluorobutanoyl)-6,7-dihydro-2H-pyrido[2,1-a]isoquinoline-3-carboxylic Acid] | 7.99 | – |
